Experimental data published in ChEMBL document CHEMBL5653615 (J Biol Chem, 2013).

Assays:
[1] = molecular target: T1, Beta-adrenergic receptor kinase 1 (Homo sapiens) (UniProt P25098); assay: Inhibition of human GRK2 at 18.6 nM by HotSpot assay relative to control
T1 sequence (whole entry): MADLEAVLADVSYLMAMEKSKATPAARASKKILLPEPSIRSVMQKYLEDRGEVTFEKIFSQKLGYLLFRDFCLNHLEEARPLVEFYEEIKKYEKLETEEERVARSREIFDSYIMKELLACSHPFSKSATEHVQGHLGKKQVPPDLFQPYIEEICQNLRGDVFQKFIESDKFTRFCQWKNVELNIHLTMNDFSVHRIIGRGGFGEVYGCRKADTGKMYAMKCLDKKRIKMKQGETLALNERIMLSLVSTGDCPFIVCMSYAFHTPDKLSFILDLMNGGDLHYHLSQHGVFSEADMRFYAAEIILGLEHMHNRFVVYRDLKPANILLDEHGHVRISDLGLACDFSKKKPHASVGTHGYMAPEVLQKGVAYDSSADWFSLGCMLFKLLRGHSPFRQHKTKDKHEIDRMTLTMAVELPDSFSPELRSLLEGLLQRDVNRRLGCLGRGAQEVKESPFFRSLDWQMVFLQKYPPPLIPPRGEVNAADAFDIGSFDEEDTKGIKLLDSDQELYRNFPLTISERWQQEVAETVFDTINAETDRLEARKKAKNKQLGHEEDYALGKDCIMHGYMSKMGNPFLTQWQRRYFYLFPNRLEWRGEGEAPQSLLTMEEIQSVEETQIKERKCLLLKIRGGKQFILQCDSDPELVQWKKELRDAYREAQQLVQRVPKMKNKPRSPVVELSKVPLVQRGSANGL

[2] = molecular target: MAP kinase-interacting serine/threonine-protein kinase 1 (Homo sapiens) (UniProt Q9BUB5); assay: Inhibition of human MNK1 at 1.82 nM by HotSpot assay relative to control
Sequence of MAP kinase-interacting serine/threonine-protein kinase 1 (Homo sapiens) (Q9BUB5 whole entry, looked up): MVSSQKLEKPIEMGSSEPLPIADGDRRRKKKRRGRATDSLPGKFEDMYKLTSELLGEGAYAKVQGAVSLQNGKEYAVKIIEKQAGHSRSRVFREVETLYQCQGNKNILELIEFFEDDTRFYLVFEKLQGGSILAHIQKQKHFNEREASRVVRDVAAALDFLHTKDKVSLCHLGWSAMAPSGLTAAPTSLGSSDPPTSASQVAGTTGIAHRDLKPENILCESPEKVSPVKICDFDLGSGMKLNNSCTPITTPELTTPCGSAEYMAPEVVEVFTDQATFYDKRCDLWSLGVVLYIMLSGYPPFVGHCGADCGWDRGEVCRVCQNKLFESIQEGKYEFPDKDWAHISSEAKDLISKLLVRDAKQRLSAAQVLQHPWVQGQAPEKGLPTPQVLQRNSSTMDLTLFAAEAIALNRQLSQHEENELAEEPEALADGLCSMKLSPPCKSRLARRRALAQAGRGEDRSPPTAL

[3] = molecular target: T2, Tyrosine-protein kinase receptor TYRO3 (Homo sapiens) (UniProt Q06418); assay: Inhibition of human SKY at 1.82 nM by HotSpot assay relative to control
T2 sequence (whole entry): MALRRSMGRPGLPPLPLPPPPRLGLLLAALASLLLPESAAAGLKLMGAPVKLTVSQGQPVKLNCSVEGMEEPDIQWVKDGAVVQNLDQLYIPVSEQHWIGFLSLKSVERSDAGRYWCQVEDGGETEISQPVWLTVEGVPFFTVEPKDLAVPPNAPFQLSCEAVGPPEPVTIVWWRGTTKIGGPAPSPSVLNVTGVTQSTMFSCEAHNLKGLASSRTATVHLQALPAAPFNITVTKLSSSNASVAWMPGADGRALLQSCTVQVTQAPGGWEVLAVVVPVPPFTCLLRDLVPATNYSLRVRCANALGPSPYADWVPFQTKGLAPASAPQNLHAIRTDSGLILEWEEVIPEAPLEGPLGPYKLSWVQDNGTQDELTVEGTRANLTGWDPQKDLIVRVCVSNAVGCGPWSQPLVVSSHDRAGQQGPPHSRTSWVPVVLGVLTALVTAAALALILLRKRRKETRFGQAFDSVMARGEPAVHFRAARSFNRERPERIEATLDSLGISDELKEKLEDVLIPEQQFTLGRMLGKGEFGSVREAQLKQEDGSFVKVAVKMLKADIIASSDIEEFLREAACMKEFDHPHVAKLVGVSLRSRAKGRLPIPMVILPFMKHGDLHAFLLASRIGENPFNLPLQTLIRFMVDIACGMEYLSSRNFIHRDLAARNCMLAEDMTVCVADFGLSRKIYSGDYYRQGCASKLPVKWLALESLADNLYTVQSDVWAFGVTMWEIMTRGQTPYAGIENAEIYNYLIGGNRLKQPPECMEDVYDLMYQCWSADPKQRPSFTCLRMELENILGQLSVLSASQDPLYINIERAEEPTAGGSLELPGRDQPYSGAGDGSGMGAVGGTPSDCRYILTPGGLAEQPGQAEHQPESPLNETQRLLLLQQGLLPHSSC

[4] = molecular target: MAP kinase-interacting serine/threonine-protein kinase 2 (Homo sapiens) (UniProt Q9HBH9); assay: Inhibition of human MNK2 at 1.82 nM by HotSpot assay relative to control
Sequence of MAP kinase-interacting serine/threonine-protein kinase 2 (Homo sapiens) (Q9HBH9 whole entry, looked up): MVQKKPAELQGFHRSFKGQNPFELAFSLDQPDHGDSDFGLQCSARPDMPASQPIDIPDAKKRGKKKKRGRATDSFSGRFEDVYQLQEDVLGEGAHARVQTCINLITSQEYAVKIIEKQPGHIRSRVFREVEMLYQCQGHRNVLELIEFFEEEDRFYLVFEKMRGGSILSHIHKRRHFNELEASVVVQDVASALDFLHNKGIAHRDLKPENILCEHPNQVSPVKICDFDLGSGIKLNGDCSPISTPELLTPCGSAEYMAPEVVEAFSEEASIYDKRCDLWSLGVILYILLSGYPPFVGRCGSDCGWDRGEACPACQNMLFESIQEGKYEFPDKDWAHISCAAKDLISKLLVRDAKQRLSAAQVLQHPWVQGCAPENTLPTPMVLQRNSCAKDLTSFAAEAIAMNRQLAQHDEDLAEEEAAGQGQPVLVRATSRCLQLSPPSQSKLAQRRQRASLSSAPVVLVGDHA

[5] = molecular target: T3, Myotonin-protein kinase (Homo sapiens) (UniProt Q09013); assay: Inhibition of human DMPK at 1.82 nM by HotSpot assay relative to control
T3 sequence (whole entry): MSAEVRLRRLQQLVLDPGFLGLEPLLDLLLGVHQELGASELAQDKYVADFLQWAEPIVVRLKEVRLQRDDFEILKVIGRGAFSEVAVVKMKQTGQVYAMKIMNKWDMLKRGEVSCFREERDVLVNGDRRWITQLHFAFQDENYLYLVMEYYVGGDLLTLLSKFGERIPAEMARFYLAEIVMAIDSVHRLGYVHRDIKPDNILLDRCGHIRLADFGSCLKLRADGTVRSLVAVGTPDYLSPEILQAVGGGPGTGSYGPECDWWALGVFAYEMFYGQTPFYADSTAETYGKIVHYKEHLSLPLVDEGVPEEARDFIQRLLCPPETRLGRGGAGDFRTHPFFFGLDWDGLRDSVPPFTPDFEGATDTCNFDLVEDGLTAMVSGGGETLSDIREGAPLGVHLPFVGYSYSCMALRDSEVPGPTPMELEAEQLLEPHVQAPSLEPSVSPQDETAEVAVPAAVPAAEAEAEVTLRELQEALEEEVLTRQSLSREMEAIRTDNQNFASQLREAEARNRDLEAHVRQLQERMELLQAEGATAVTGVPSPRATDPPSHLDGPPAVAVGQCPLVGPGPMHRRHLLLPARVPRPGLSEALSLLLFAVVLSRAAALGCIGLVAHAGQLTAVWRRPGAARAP

[6] = molecular target: cAMP-dependent protein kinase (PKA) (Homo sapiens) (UniProt P22694+P17612+P22612); assay: Inhibition of human PKA at 1.82 nM by HotSpot assay relative to control; type: protein assay
[7] = molecular target: Calcium/calmodulin-dependent protein kinase type II subunit delta (Homo sapiens) (UniProt Q13557); assay: Inhibition of human CAMK2d at 1.82 nM by HotSpot assay relative to control
Sequence of Calcium/calmodulin-dependent protein kinase type II subunit delta (Homo sapiens) (Q13557 whole entry): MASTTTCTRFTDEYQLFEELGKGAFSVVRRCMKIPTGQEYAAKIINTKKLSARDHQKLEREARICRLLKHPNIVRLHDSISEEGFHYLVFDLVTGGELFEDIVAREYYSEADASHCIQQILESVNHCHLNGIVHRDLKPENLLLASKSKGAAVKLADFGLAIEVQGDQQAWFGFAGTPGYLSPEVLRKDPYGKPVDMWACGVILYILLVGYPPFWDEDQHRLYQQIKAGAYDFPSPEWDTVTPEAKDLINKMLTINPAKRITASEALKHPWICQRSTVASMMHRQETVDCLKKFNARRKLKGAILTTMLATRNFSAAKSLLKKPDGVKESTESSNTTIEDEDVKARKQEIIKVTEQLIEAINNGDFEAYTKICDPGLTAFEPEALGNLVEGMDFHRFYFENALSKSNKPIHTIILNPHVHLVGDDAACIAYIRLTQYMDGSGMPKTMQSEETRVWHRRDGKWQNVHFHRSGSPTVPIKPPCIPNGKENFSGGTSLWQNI

Row | SMILES | inhibition [1] | inhibition [2] | inhibition [3] | inhibition [4] | inhibition [5] | inhibition [6] | inhibition [7]
1 | C[C@]1(O)C[C@@H](c2nc(-c3ccc4ccc(-c5ccccc5)nc4c3)c3c(N)nccn32)C1 | -1% | – | – | – | – | – | –
2 | C[C@@]1(C(=O)Nc2ccc(F)nc2)CCCN1c1nc(Nc2cc(C3CC3)n[nH]2)c2cccn2n1 | – | 5.01% | -1.49% | -4.8% | 2.2% | -3.44% | -2.72%
